Results taken from ChEMBL document CHEMBL1154024, “Synthesis of radiolabeled cytarabine conjugates” (2009).
Activity calls are given as the source filed them. No cut-off for these calls is given here.

Assays:
[1] = Cytotoxicity in human H441 cells at 2 uM after 72 hrs by trypan blue cell exclusion assay; type: functional, NCI-H441
NCI-H441 [2] = assay: Cytotoxicity against human H441 cells by glucosaminidase assay; type: functional, cell-based
NCI-H441 [3] = assay: Cytotoxicity against human H441 cells by serum lactate dehydrogenase assay; type: functional, cell-based
NCI-H441 [4] = assay: Cytotoxicity against human H441 cells after 72 hrs by trypan blue cell exclusion assay; type: functional, cell-based

Structure (SMILES) | Activity [1] [%] | Activity (NCI-H441 [2]) | Activity (NCI-H441 [3]) | Activity (NCI-H441 [4])
NNc1ccc(C(=O)Nc2ccn([C@@H]3O[C@H](CO)[C@@H](O)[C@@H]3O)c(=O)n2)cn1 | 55 | Active | Active | Dose-dependent effect
Nc1ccn([C@@H]2O[C@H](CO)[C@@H](O)[C@@H]2O)c(=O)n1 [CYTARABINE] | 55 | Active | Active | Dose-dependent effect
